The subject of one assay is Hsp90. Briefly: Hsp90 binding assay (fluorescence polarization, cy3B-GM displacement), human cancer cell lysate. Particulars: fluorescence polarization, cy3B-GM displacement; the table does not say which lysate (SKBr3 or JNPL3). As for the experimental part:
(§1) For the binding studies, fluorescence polarization (FP) assays w-re performed similarly as was previously reported [Du et al. (2007) “High-throughput screening fluorescence polarization assay for tumor-specific Hsp90” J. Biomol. Screen 12:915-924]. Briefly, FP measurements were performed on an Analyst GT instrument (Molecular Devices, Sunnyvale, Calif.). Measurements were taken in black 96-well microtiter plates (Corning #3650) where both the excitation and the emission occurred from the top of the well. A stock of 10 μM cy3B-GM was prepared in DMSO and diluted with HFB buffer (20 mM Hepes (K), pH 7.3, 50 mM KCl, 2 mM DTT, 5 mM MgCl2, 20 mM Na2MoO4, and 0.01% NP40 with 0.1 mg/mL BGG). The test compounds were dissolved in DMSO and added at several concentrations to the HFB assay buffer containing both 6 nM cy3B-GM and transgenic mouse brain lysate (6 μg JNPL3 lysate) or human cancer cell lysate (3 μg SKBr3 lysate) in a final volume of 100 μL. Drugs were added to triplicate wells. Free cy3B-GM (6 nM cy3B-GM), bound cy3B-GM (6 nM cy3B-GM+lysate, as indicated above) and buffer only containing wells (background) were included as controls in each plate. Plates were incubated on a shake at 4° C., and polarization values measured at 24 h. Percentage inhibition was calculated as follows: (% Control)=100−((mPc−mPf)/(mPb−mPf))×100, where mPc is the recorded mP from compound wells, mPf is the average recorded mP from cy3B-GM-only wells, and mPb is the average recorded mP from wells containing both cy3B-GM and lysate, and plotted against values of competitor concentrations. The inhibitor concentration at which 50% of bound cy3B-GM was displaced was obtained by fitting the data using a nonlinear regression analysis as implemented in Prism 4.0 (GraphPad Software).

Another assay has as its target T1, hERG (Homo sapiens, UniProt Q12809).
T1 construct: purchased Invitrogen PV5365
Briefly: hERG fluorescence polarization assay (Predictor hERG kit). Type of assay: binding. As for the experimental part:
hERG Fluorescence Polarization Assay:
Following the manufacturer's protocol, the hERG assay was performed using Predictor hERG Fluorescence Polarization Assay kit (catalog no. PV5365) from Invitrogen. Briefly, FP measurements were performed on an Analyst GT instrument (Molecular Devices, Sunnyvale, Calif.). Measurements were taken in black 384-well plates (Corning #3677), where both the excitation and the emission occurred from the top of the well. The test compounds were dissolved in DMSO and added at several concentrations to the Predictor hERG FP assay buffer containing 4 nM Predictor hERG tracer red and 10 μL of Predictor hERG membrane in a final volume of 20 μL. Drugs were added to triplicate wells. E-4031 as positive control was included in each plate. Plates were then kept on a shaker at room temperature and polarization values were measured after 4 hrs. The inhibition concentration at which 50% of tracer red gets displaced was obtained by fitting the data using a nonlinear regression analysis as implemented in Prism 5.0 (GraphPad Software).

A further assay relates to Hsp90 (SKBr3 lysate). Briefly: Hsp90 binding assay (fluorescence polarization, cy3B-GM displacement), human cancer cell lysate. Particulars: lysate not given. On the procedure:
as §1
For orientation: Fluorescence polarisation rises when a labelled molecule tumbles more slowly, as on binding a larger partner.

The mark [1] stands for this setting: Predictor hERG fluorescence polarization, displacement of tracer red, read after 4 hrs, read-out: hERG assay.

Read-outs that look alike come from different tables or passages of the source. Where only a bound is given, the exact number is not on record here.

These results are taken from patent US9926321B2, “Hsp90 inhibitors” (Sloan-Kettering Institute for Cancer Research, priority 2011, dated 2018).

T1 sequence (Q12809 whole entry): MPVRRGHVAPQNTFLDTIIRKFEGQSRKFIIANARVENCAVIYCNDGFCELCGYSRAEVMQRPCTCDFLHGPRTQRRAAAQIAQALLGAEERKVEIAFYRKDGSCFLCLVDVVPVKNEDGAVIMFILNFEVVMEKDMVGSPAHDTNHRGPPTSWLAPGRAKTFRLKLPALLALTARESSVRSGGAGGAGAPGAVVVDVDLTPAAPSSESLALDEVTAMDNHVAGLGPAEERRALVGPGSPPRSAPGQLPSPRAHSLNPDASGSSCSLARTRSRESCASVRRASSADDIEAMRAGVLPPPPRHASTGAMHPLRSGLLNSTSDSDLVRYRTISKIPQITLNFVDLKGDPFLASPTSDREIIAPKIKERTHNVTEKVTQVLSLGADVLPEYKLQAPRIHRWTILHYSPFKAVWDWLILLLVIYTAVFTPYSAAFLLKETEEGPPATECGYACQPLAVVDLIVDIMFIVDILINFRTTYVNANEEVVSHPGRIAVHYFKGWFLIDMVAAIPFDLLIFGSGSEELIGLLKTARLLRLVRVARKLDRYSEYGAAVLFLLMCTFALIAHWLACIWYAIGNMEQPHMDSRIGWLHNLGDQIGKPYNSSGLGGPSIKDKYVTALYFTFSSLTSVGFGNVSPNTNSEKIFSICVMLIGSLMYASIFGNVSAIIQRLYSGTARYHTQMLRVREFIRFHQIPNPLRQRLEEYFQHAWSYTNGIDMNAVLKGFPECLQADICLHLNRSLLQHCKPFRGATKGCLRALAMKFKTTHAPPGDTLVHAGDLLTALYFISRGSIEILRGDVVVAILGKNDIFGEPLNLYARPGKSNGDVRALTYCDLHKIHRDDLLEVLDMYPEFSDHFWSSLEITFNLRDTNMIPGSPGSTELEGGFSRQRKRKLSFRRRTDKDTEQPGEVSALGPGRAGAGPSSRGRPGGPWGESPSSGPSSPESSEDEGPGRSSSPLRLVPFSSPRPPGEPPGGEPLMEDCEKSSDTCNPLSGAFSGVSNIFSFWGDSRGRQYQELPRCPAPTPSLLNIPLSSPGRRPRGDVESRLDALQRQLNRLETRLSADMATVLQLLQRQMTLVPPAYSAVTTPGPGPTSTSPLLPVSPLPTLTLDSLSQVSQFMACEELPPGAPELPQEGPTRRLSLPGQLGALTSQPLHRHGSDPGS

Turning to `CC(C)(C)[S+]([O-])NCCCn1c(Sc2cc3c(cc2I)OCO3)nc2c(N)ncnc21` (stereo not drawn) [Compound 1A-26, 2-Methyl-propane-2-sulfinic acid {3-[6-amino-8-(6-iodo-benzo[1,3]dioxol-5-ylsulfanyl)-purin-9-yl]-propyl}-amide], the figures for the IC50 in the assay on Hsp90 and on hERG (setting [1]) were 12 nM and > 100000 nM, respectively.

For the compound `CC(C)(C)C(=O)NCCCn1c(Cc2cc3c(cc2I)OCO3)nc2c(N)nc(F)nc21` [Compound 4A-43, N-{3-[6-Amino-2-fluoro-8-(6-iodo-benzo[1,3]dioxol-5-ylmethyl)-purin-9-yl]-propyl}-2,2-dimethyl-propionamide], the “Hsp90 binding affinity (in words, referring to Table 12)” value (“Hsp90 binding affinity” below) in the assay on Hsp90 (SKBr3 lysate) is reported as “high level of binding affinity”. The IC50 with Hsp90 was 33.1 nM; at hERG (setting [1]) it was > 100000 nM.

Consider `CC(C)(O)C(=O)NCCCn1c(Sc2cc3c(cc2I)OCO3)nc2c(N)ncnc21` [Compound 1A-48, N-(3-(6-Amino-8-((6-iodobenzo[d][1,3]dioxol-5-yl)thio)-9H-purin-9-yl)propyl)-2-hydroxy-2-methylpropanamide], for which the IC50 in the assay on Hsp90 was 22.1 nM; at hERG (setting [1]), 12000 nM.

Take `CC(C)(C)[S+]([O-])NCCn1c(Sc2cc3c(cc2I)CCO3)nc2c(N)ncnc21` (stereo not drawn) [Compound 2A-12, 2-Methyl-propane-2-sulfinic acid {2-[6-amino-8-(5-iodo-2,3-dihydro-benzofuran-6-ylsulfanyl)-purin-9-yl]-ethyl}-amide]: the “Hsp90 binding affinity” value in the assay with Hsp90 (SKBr3 lysate) is “high level of binding affinity”. This compound also yielded an IC50 in the assay on Hsp90 of 68 nM.

As to `Nc1ncnc2c1nc(Sc1cc3c(cc1I)CCO3)n2CCCNC(=O)C1CC1` [Compound 2A-45, Cyclopropanecarboxylic acid {3-[6-amino-8-(5-iodo-2,3-dihydro-benzufuran-6-ylsulfanyl)-purin-9-yl]-propyl}-amide], in the assay on Hsp90 (SKBr3 lysate), the “Hsp90 binding affinity” value is recorded as “high level of binding affinity”. The same compound gave an IC50 in the assay with Hsp90 of 11.8 nM.

`Nc1nc(F)nc2c1nc(Cc1cc3c(cc1I)OCO3)n2CCCNC(=O)C1CC1` [Compound 4A-45, Cyclopropanecarboxylic acid {3-[6-amino-2-fluoro-8-(6-iodo-benzo[1,3]dioxol-5-ylmethyl)-purin-9-yl]-propyl}-amide]: the “Hsp90 binding affinity” value with Hsp90 (SKBr3 lysate) was “high level of binding affinity”. Further, the IC50 in the assay on Hsp90 was 20 nM; on hERG (setting [1]), > 100000 nM.

`C#Cc1cc2c(cc1Sc1nc3c(N)ncnc3n1CCCNS(C)(=O)=O)CCC2` [Compound 3A-43, N-{3-[6-Amino-8-(6-ethynyl-indan-5-ylsulfanyl)-purin-9-yl]-propyl}-methanesulfonamide]: the “Hsp90 binding affinity” value with Hsp90 (SKBr3 lysate) is “high level of binding affinity”. In addition, in the assay on Hsp90, the IC50 was found to be 37.4 nM.

Consider `CC(C)(C)S(=O)(=O)NCCn1c(Sc2cc3c(cc2I)CCC3)nc2c(N)ncnc21` [Compound 3A-11, 2-Methyl-propane-2-sulfonic acid {2-[6-amino-8-(6-iodo-indan-5-ylsulfanyl)-purin-9-yl]-ethyl}-amide], for which the “Hsp90 binding affinity” value with Hsp90 (SKBr3 lysate) is “high level of binding affinity”. The compound also returned an IC50 with Hsp90 of 68 nM.

In the case of `CS(=O)(=O)NCCCn1c(Sc2cc3c(cc2I)OCO3)nc2c(N)ncnc21` [Compound 1A-24, N-{3-[6-Amino-8-(6-iodo-benzo[1,3]dioxol-5-ylsulfanyl)-purin-9-yl]-propyl}-methanesulfonamide], in the assay on Hsp90 (SKBr3 lysate), the “Hsp90 binding affinity” value is reported as “high level of binding affinity”. In the assay with Hsp90, this compound yielded an IC50 of 11.5 nM.

Turning to `CN(C)c1cc2c(cc1Sc1nc3c(N)ncnc3n1CCCNC(=O)C(C)(C)C)OCO2` [Compound 1G-43, N-{3-[6-Amino-8-(6-dimethylamino-benzo[1,3]dioxol-5-ylsulfanyl)-purin-9-yl]-propyl}-2,2-dimethyl-propionamide], the “Hsp90 binding affinity” value with Hsp90 (SKBr3 lysate) is “high level of binding affinity”. Besides, the IC50 in the assay on Hsp90 was 11 nM; on hERG (setting [1]), > 100000 nM.

On to `CN(C)c1cc2c(cc1Sc1nc3c(N)ncnc3n1CCCNC(=O)C1CC1)OCO2` [Compound 1G-45, Cyclopropanecarboxylic acid {3-[6-amino-8-(6-dimethylamino-benzo[1,3]dioxol-5-ylsulfanyl)-purin-9-yl]-propyl}-amide], for which, in the assay with Hsp90 (SKBr3 lysate), the “Hsp90 binding affinity” value is “high level of binding affinity”. The results for the IC50 in the assay with Hsp90 and at hERG (setting [1]) were 15 nM and 76000 nM, respectively.

Turning to `CC(C)(C)S(=O)(=O)NCCn1c(Sc2cc3c(cc2I)OCO3)nc2c(N)ncnc21` [Compound 1A-11, 2-Methyl-propane-2-sulfonic acid {2-[6-amino-8-(6-iodo-benzo[1,3]dioxol-5-ylsulfanyl)-purin-9-yl]-ethyl}-amide], the “Hsp90 binding affinity” value in the assay with Hsp90 (SKBr3 lysate) is “high level of binding affinity”. For the same compound, the IC50 with Hsp90 was found to be 71.5 nM.

Turning to `Nc1ncnc2c1nc(Sc1cc3c(cc1I)OCO3)n2CCCNC(=O)C1CC1` [Compound 1A-45, N-(3-(6-amino-8-((6-iodobenzo[d][1,3]dioxol-5-yl)thio)-9H-purin-9-yl)propyl)cyclopropane carboxamide], the IC50 with Hsp90 is 9.8 nM; on hERG (setting [1]), > 100000 nM.

As to `CS(=O)(=O)NCCn1c(Sc2cc3c(cc2I)CCC3)nc2c(N)ncnc21` [Compound 3A-10, N-{2-[6-Amino-8-(6-iodo-indan-5-ylsulfanyl)-purin-9-yl]-ethyl}-methanesulfonamide], the “Hsp90 binding affinity” value in the assay on Hsp90 (SKBr3 lysate) was “high level of binding affinity”. Besides, the IC50 in the assay on Hsp90 was 3.5 nM.

Turning to `CN(C)c1cc2c(cc1Sc1nc3c(N)ncnc3n1CCCNS(=O)(=O)C1CC1)OCO2` [Compound 1G-28, N-(3-(6-amino-8-((6-(dimethylamino)benzo[d] [1,3]dioxol-5-yl)thio)-9H-purin-9-yl)propyl)cyclopropane-sulfonamide], the “Hsp90 binding affinity” value in the assay on Hsp90 (SKBr3 lysate) is “high level of binding affinity”. The compound also came in with an IC50 in the assay on Hsp90 of 22 nM.

Consider `CC(C)(C)S(=O)(=O)NCCn1c(Sc2cc3c(cc2I)CCO3)nc2c(N)ncnc21` [Compound 2A-11, 2-Methyl-propane-2-sulfonic acid {2-[6-amino-8-(5-iodo-2,3-dihydro-benzofuran-6-ylsulfanyl)-purin-9-yl]-ethyl}-amide], for which the “Hsp90 binding affinity” value in the assay with Hsp90 (SKBr3 lysate) is on record as “high level of binding affinity”. In the assay with Hsp90, this compound showed an IC50 of 51 nM.

For the compound `CC(C)(C)C(=O)NCCCn1c(Sc2cc3c(cc2I)OCO3)nc2c(N)ncnc21` [Compound 1A-43, N-(3-(6-amino-8-((6-iodobenzo[d][1,3]dioxol-5-yl)thio)-9H-purin-9-yl)propyl)pivalamide], the IC50 was 11 nM in the assay with Hsp90 and > 100000 nM on hERG (setting [1]).

As to `CC(C)(C)[S+]([O-])NCCCn1c(Sc2cc3c(cc2I)CCC3)nc2c(N)ncnc21` (stereo not drawn) [Compound 3A-26, 2-Methyl-propane-2-sulfinic acid {3-[6-amino-8-(6-iodo-indan-5-ylsulfanyl)-purin-9-yl]-propyl}-amide], in the assay on Hsp90 (SKBr3 lysate), the “Hsp90 binding affinity” value was “high level of binding affinity”. The compound further yielded an IC50 in the assay on Hsp90 of 20.1 nM.

Consider `CC(C)(C)NS(=O)(=O)CCn1c(Sc2cc3c(cc2I)OCO3)nc2c(N)ncnc21` [Compound 1A-5, 2-[6-Amino-8-(6-iodo-benzo[1,3]dioxol-5-ylsulfanyl)-purin-9-yl]-ethanesulfonic acid tert-butylamide], for which the “Hsp90 binding affinity” value in the assay on Hsp90 (SKBr3 lysate) is “high level of binding affinity”. This compound had an IC50 with Hsp90 of 78 nM.

`CC(C)(C)NS(=O)(=O)CCCn1c(Sc2cc3c(cc2I)OCO3)nc2c(N)ncnc21` [Compound 1A-19, 3-[6-Amino-8-(6-iodo-benzo[1,3]dioxol-5-ylsulfanyl)-purin-9-yl]-propane-1-sulfonic acid tert-butylamide]: in the assay with Hsp90 (SKBr3 lysate), the “Hsp90 binding affinity” value is listed as “high level of binding affinity”. The same compound displayed an IC50 in the assay on Hsp90 of 44 nM.

Consider `CC(C)NCCCn1c(Sc2cc3c(cc2I)OCO3)nc2c(N)ncnc21` [PU-H71, reference compound], for which, at hERG (concentration displacing 50% of Predictor hERG tracer red, read-out: hERG assay result), the IC50 is 1000 nM.
